Data as given in patent US10780090B2, “Heteroaryl compounds useful as inhibitors of SUMO activating enzyme” (Millennium Pharmaceuticals, Inc., priority 2014, dated 2020).
Where two headings read alike, the source gives them in different places.

Molecular target: recombinant human SAE enzyme (Homo sapiens (Human), UniProt Q9UBT2)
Experiment: SAE HTRF enzyme assay
Type: biochemical
Details: for inhibition at 0.111 µM: read-out: Percent Inhibition
Method in brief: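 0.11 nM SAE incubated with 0.5 μM ATP, 0.01 μM Ubc9-GST and 0.125 μM Sumo-Flag in HEPES pH 7.5, MgCl2, GSH, BSA, ±inhibitor, 105 min at 24° C. EDTA stop; Eu-cryptate anti-Flag/XL-APC anti-GST HTRF read after 2 h. Values given as single-concentration % inhibition or IC50.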

[1] = SAE inhibition at compound concentration 0.111 μM
[2] = SAE inhibition, class symbols, legend in nM

recombinant human SAE enzyme, sequence (Q9UBT2 whole entry): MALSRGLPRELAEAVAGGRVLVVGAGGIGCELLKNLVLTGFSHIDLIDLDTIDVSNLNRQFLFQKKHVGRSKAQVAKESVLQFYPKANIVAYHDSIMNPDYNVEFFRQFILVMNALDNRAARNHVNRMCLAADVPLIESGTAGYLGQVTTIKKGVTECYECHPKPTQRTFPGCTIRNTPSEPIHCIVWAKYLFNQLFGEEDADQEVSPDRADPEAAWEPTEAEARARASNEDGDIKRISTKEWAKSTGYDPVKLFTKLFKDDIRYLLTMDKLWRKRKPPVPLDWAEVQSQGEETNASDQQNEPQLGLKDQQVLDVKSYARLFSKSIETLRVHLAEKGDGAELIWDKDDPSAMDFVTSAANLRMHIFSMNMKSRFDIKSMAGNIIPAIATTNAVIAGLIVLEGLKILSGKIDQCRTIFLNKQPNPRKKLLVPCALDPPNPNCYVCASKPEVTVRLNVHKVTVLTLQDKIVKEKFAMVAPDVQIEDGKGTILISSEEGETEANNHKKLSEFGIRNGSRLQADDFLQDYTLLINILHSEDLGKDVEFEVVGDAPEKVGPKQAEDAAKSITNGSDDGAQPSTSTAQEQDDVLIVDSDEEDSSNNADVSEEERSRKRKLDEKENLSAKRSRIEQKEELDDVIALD
recombinant human SAE enzyme, sequence (Q9UBE0 whole entry partner): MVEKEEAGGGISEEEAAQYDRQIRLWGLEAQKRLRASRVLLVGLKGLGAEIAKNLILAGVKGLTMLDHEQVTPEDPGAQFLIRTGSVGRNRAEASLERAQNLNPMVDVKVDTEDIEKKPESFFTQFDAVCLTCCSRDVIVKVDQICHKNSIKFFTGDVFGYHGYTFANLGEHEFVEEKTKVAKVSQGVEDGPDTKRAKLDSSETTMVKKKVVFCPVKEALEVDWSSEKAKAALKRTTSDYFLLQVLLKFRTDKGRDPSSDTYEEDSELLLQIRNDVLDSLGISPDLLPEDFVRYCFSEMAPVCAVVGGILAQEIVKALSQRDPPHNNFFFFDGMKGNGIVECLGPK

| SMILES | Percent Inhibition (Concentration 0.111 μM) | IC50 (class symbols A/B/C) [nM] | inhibition at 0.111 µM (Concentration 0.111 μM) [%] | also measured |
| --- | --- | --- | --- | --- |
| C[C@](O)(c1ccccc1)c1coc(C(=O)c2cncnc2N[C@@H]2C[C@H](COS(N)(=O)=O)[C@@H](O)C2)c1 (single isomer, unassigned) [I-58b, {(1R,2S,4R)-2-hydroxy-4-[(5-{4-[(1S)-1-hydroxy-1-phenylethyl]-2-furoyl}pyrimidin-4-yl)amino]cyclopentyl}methyl sulfamate or {(1R,2S,4R)-2-hydroxy-4-[(5-{4-[(1R)-1-hydroxy-1-phenylethyl]-2-furoyl}pyrimidin-4-yl)amino]cyclopentyl}methyl sulfamate] | 100 | < 10 |  |  |
| NS(=O)(=O)OC[C@H]1C[C@@H](Nc2ncncc2C(=O)c2cc(COc3ccccc3C(F)(F)F)cs2)C[C@@H]1O [I-188, [(1R,2S,4R)-2-hydroxy-4-({5-[(4-{[2-(trifluoromethyl)phenoxy]methyl}-2-thienyl)carbonyl]pyrimidin-4-yl}amino)cyclopentyl]methyl sulfamate] |  | 10 to 100 | 79 |  |
| CO[C@H](c1cccc(Cl)c1)c1cc(C(=O)c2cncnc2N[C@@H]2C[C@H](COS(N)(=O)=O)[C@@H](O)C2)sc1Cl (single isomer, unassigned) [I-90b, [(1R,2S,4R)-4-{[5-({5-chloro-4-[(R)-(3-chlorophenyl)(methoxy)methyl]-2-thienyl}carbonyl)pyrimidin-4-yl]amino}-2-hydroxycyclopentyl]methyl sulfamate or [(1R,2S,4R)-4-{[5-({5-chloro-4-[(S)-(3-chlorophenyl)(methoxy)methyl]-2-thienyl}carbonyl)pyrimidin-4-yl]amino}-2-hydroxycyclopentyl]methyl sulfamate] | 92 | 10 to 100 |  |  |
| Cc1oc(C(=O)c2cncnc2N[C@@H]2C[C@H](COS(N)(=O)=O)[C@@H](O)[C@@H]2F)cc1Cc1cccc(Br)c1 [I-64, [(1R,2R,3R,4R)-4-({5-[4-(3-bromobenzyl)-5-methyl-2-furoyl]pyrimidin-4-yl}amino)-3-fluoro-2-hydroxycyclopentyl]methyl sulfamate] |  | < 10 | 99 |  |
| NS(=O)(=O)OC[C@H]1C[C@@H](Nc2ncncc2C(=O)c2cc(Cc3ccccc3)c(Cc3ccccc3)s2)C[C@@H]1O [I-144, [(1R,2S,4R)-4-({5-[(4,5-Dibenzyl-2-thienyl)carbonyl]pyrimidin-4-yl}amino)-2-hydroxycyclopentyl]methyl sulfamate] |  | < 10 | 93 |  |
| C[C@](O)(c1ccccc1)c1coc(C(=O)c2cncnc2N[C@@H]2C[C@H](COS(N)(=O)=O)[C@@H](O)C2)c1 (single isomer, unassigned) [I-58a, {(1R,2S,4R)-2-hydroxy-4-[(5-{4-[(1S)-1-hydroxy-1-phenylethyl]-2-furoyl}pyrimidin-4-yl)amino]cyclopentyl}methyl sulfamate or {(1R,2S,4R)-2-hydroxy-4-[(5-{4-[(1R)-1-hydroxy-1-phenylethyl]-2-furoyl}pyrimidin-4-yl)amino]cyclopentyl}methyl sulfamate] | 87 | 10 to 100 |  |  |
| NS(=O)(=O)OC[C@H]1C[C@@H](Nc2ncncc2C(=O)c2cc(Cc3ccccc3Cl)cs2)C[C@@H]1O [I-165, {(1R,2S,4R)-4-[(5-{[4-(2-chlorobenzyl)-2-thienyl]carbonyl}pyrimidin-4-yl)amino]-2-hydroxycyclopentyl}methyl sulfamate] |  | 10 to 100 | 91 |  |
| NS(=O)(=O)OC[C@H]1C[C@@H](Nc2ncncc2C(=O)c2cc(CCc3ccccc3)cs2)C[C@@H]1O [I-108, {(1R,2S,4R)-2-Hydroxy-4-[(5-{[4-(2-phenylethyl)-2-thenyl]carbonyl}pyrimidin-4-yl)amino]cyclopentyl}methyl sulfamate] |  |  | 96 |  |
| Cc1oc(C(=O)c2cncnc2N[C@@H]2C[C@H](COS(N)(=O)=O)[C@@H](O)C2)cc1[C@@H]1OCCc2ccc(Cl)cc21 (mixture of isomers) [I-270, {(1R,2S,4R)-4-[(5-{4-[(1R)-7-chloro-3,4-dihydro-1H-isochromen-1-yl]-5-methyl-2-furoyl}pyrimidin-4-yl)amino]-2-hydroxycyclopentyl}methyl sulfamate and {(1R,2S,4R)-4-[(5-{4-[(1S)-7-chloro-3,4-dihydro-1H-isochromen-1-yl]-5-methyl-2-furoyl}pyrimidin-4-yl)amino]-2-hydroxycyclopentyl}methyl sulfamate] | 99 | < 10 |  |  |
| C[C@](O)(c1cccc(Cl)c1)c1coc(C(=O)c2cncnc2N[C@@H]2C[C@H](COS(N)(=O)=O)[C@@H](O)C2)c1 (single isomer, unassigned) [I-30b, {(1R,2S,4R)-4-[(5-{4-[(1S)-1-(3-chlorophenyl)-1-hydroxyethyl]-2-furoyl}pyrimidin-4-yl)amino]-2-hydroxycyclopentyl}methyl sulfamate or {(1R,2S,4R)-4-[(5-{4-[(1R)-1-(3-chlorophenyl)-1-hydroxyethyl]-2-furoyl}pyrimidin-4-yl)amino]-2-hydroxycyclopentyl}methyl sulfamate] | 88 | 10 to 100 |  |  |
| NS(=O)(=O)OC[C@H]1C[C@@H](Nc2ncncc2C(=O)c2cc([C@@H]3CCc4ccc(Cl)cc43)cs2)C[C@@H]1O (single isomer, unassigned) [I-349b, [(1R,2S,4R)-4-{[5-({4-[(1R)-6-chloro-2,3-dihydro-1H-inden-1-yl]-2-thienyl}carbonyl)pyrimidin-4-yl]amino}-2-hydroxycyclopentyl]methyl sulfamate or [(1R,2S,4R)-4-{[5-({4-[(1S)-6-chloro-2,3-dihydro-1H-inden-1-yl]-2-thienyl}carbonyl)pyrimidin-4-yl]amino}-2-hydroxycyclopentyl]methyl sulfamate] |  |  |  | Percent Inhibition [1]: 58%; IC50 [2]: 10 to 100 nM |
| Cc1sc(C(=O)c2cncnc2N[C@@H]2C[C@H](COS(N)(=O)=O)[C@@H](O)C2)cc1[C@@H]1OCCc2ccc(C#N)cc21.Cc1sc(C(=O)c2cncnc2N[C@@H]2C[C@H](COS(N)(=O)=O)[C@@H](O)C2)cc1[C@H]1OCCc2ccc(C#N)cc21 (mixture of isomers) [I-313, [(1R,2S,4R)-4-{[5-({4-[(1R)-7-cyano-3,4-dihydro-1H-isochromen-1-yl]-5-methyl-2-thienyl}carbonyl)pyrimidin-4-yl]amino}-2-hydroxycyclopentyl]methyl sulfamate and [(1R,2S,4R)-4-{[5-({4-[(1S)-7-cyano-3,4-dihydro-1H-isochromen-1-yl]-5-methyl-2-thienyl}carbonyl)pyrimidin-4-yl]amino}-2-hydroxycyclopentyl]methyl sulfamate] |  |  |  | Percent Inhibition [1]: 94%; IC50 [2]: < 10 nM |
| Cc1sc(C(=O)c2cncnc2N[C@@H]2C[C@H](COS(N)(=O)=O)[C@@H](O)C2)cc1[C@@H]1OCCc2ccc(C(F)(F)F)nc21.Cc1sc(C(=O)c2cncnc2N[C@@H]2C[C@H](COS(N)(=O)=O)[C@@H](O)C2)cc1[C@H]1OCCc2ccc(C(F)(F)F)nc21 (mixture of isomers) [I-297, [(1R,2S,4R)-2-hydroxy-4-{[5-({5-methyl-4-[(8S)-2-(trifluoromethyl)-5,8-dihydro-6H-pyrano[3,4-b]pyridin-8-yl]-2-thienyl}carbonyl)pyrimidin-4-yl]amino}cyclopentyl]methyl sulfamate and [(1R,2S,4R)-2-hydroxy-4-{[5-({5-methyl-4-[(8R)-2-(trifluoromethyl)-5,8-dihydro-6H-pyrano[3,4-b]pyridin-8-yl]-2-thienyl}carbonyl)pyrimidin-4-yl]amino}cyclopentyl]methyl sulfamate] |  |  |  | Percent Inhibition [1]: 96%; IC50 [2]: < 10 nM |
| CN1Cc2ccc(Cl)cc2[C@@H]1c1cc(C(=O)c2cncnc2N[C@@H]2C[C@H](COS(N)(=O)=O)[C@@H](O)C2)sc1Cl (single isomer, unassigned) [I-284b, [(1R,2S,4R)-4-{[5-({5-chloro-4-[(1R)-6-chloro-2-methyl-2,3-dihydro-1H-isoindol-1-yl]-2-thienyl}carbonyl)pyrimidin-4-yl]amino}-2-hydroxycyclopentyl]methyl sulfamate or [(1R,2S,4R)-4-{[5-({5-chloro-4-[(1S)-6-chloro-2-methyl-2,3-dihydro-1H-isoindol-1-yl]-2-thienyl}carbonyl)pyrimidin-4-yl]amino}-2-hydroxycyclopentyl]methyl sulfamate] |  |  |  | Percent Inhibition [1]: 99%; IC50 [2]: < 10 nM |
| NS(=O)(=O)OC[C@H]1C[C@@H](Nc2ncncc2C(=O)c2cc([C@@H]3SCCc4ccc(Cl)cc43)cs2)[C@H](O)[C@@H]1O (mixture of isomers) [I-278, [(1R,2R,3S,4R)-4-{[5-({4-[(1R)-7-chloro-3,4-dihydro-1H-isothiochromen-1-yl]-2-thienyl}carbonyl)pyrimidin-4-yl]amino}-2,3-dihydroxycyclopentyl]methyl sulfamate and [(1R,2R,3S,4R)-4-{[5-({4-[(1S)-7-chloro-3,4-dihydro-1H-isothiochromen-1-yl]-2-thienyl}carbonyl)pyrimidin-4-yl]amino}-2,3-dihydroxycyclopentyl]methyl sulfamate] | 98 | < 10 |  |  |
| Cc1cccc(Cc2csc(C(=O)c3cncnc3N[C@@H]3C[C@H](COS(N)(=O)=O)[C@@H](O)C3)n2)c1 [I-351, {(1R,2S,4R)-2-hydroxy-4-[(5-{[4-(3-methylbenzyl)-1,3-thiazol-2-yl]carbonyl}pyrimidin-4-yl)amino]cyclopentyl}methyl sulfamate] |  |  |  | inhibition at 0.111 µM [1]: 93% |
